The values below come from PMC8414802, “Hair Cell Generation in Cochlear Culture Models Mediated by Novel γ-Secretase Inhibitors” (Frontiers in Cell and Developmental Biology, 2021).

The assay relates to hair cell genes (Atoh1, Pou4f3, Myo7a) and supporting cell gene (Hes5) in cochlear organoids. The assay is described as follows: Cochlear organoids from Atoh1-nGFP mice, gene expression by RT-PCR. Format: cell-based. The following applies: mouse organoids, 5 μM, end of differentiation, vs untreated. On the procedure: On day 0, the cochlear sensory epithelium was dissected and the OC was separated from the modiolus and stria vascularis, as described above, from either Wistar rat pups (P2), Lgr5-GFP mice (P0–P2) or Atoh1-GFP mice (P0–P2). To separate the sensory epithelial layer from underlying mesenchyme and neurons, the OC was placed in a 100 μl drop of Matrisperse Cell Recovery Solution (Corning) for 1 h at RT, then delaminated with the aid of forceps. Gentle enzymatic dissociation of hair cells and supporting cells followed with 100 μl drop of TrypLE (Gibco), 20 min at 37°C, then mechanical trituration in DMEM/F12. The cell suspension was centrifuged for 5 min at 500 g at 4°C and resuspended in DMEM/F12 medium supplemented with B27 and N2 (Invitrogen), EGF (50 ng/ml), bFGF (50 ng/ml), IGF (25 ng/ml), CHIR99021 (GSK-3β inhibitor, 3 μM, Merck), valproic acid (HDAC inhibitor, 1 mM, Sigma), 2-phospho-L-ascorbic acid (280 μM, Stemcell Technologies) and 0.01% ampicillin (Sigma). Cells were plated at 2,000 cells per well on 96 wells plate (Corning Costar; ultra-low attachment, round-bottom) to allow aggregation at 37°C. On day 1, Matrigel (GF-depleted, Corning; 2% stock) was added to a final concentration of 0.18 mg/ml. On day 3, cells were transferred to 24 wells plate (ultra-low attachment; Corning Costar), pooling the organoid aggregates from 4 to 5 wells (96 well-plate) to one 24-well, culturing at 37°C and exchanging half medium and Matrigel every other day, On day 10, organoids were differentiated by replacing medium with DMEM/F12 supplemented with B27, N2, CHIR99021 (3 μM), and Notch inhibitors CPD3 (5 μM) or LY411575 (5 μM), and culture was continued as above for another 10 days.
Cells or tissue were lysed using RLT Lysis Buffer (Qiagen) and high purity RNA was prepared on the MagNA Pure instrument using MagNA Pure 96 Cellular RNA LV Kit (Roche). […] Normalized to Tbp, relative gene expression fold-change was quantified and compared between experimental and control conditions by ΔΔCt calculation. […]

As to `COc1ccc2c(c1)N1CCC(C)(C)C1=CC(=O)[C@H]2NC(=O)[C@H](C)NC(=O)CCC(F)(F)F` [CPD3], the Atoh1 expression came to 8.07 ± 5.6 fold, the Myo7a expression came out at 9.9 ± 10.5 fold and the Pou4f3 expression was 12.65 ± 11.07 fold.
